Experimental findings from patent US20140113093A1, “Polymers with reduced estrogenic activity” (SOLVAY SPECIALITY POLYMERS USA, LLC, priority 2011, published 2014) are described below.

Each structure is given as a SMILES string. Bounds are passed on as bounds.

This assay deals with T1, Estrogen receptor α (ERα) (Homo sapiens, UniProt P03372).
T1 construct: host or cells: ER-α-UAS-bla GripTite 293 cells
T1 sequence (P03372 311-547 limits assumed): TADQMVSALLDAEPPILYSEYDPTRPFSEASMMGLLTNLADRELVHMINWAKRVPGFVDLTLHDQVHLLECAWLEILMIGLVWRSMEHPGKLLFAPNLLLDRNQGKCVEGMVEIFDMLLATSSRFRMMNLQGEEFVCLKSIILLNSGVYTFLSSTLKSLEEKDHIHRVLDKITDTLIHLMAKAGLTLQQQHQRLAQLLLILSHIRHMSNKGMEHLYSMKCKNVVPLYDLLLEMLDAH
The assay can be described thus: GeneBLAzer Cell-Based Nuclear Receptor Assay (beta-lactamase reporter), EC50 response value to ERα. The following applies: ER-α-UAS-bla GripTite 293 cells, agonist mode, 16-24 hours at 37° C., monomers tested at 7 to 250000 nM. How it is done: The plate is incubated for 16-24 hours at 37° C./5% CO2 in a humidified incubator. […] The plate is read on a fluorescence plate reader.
The following equations are used for each set of data points: […]
`CC(C)(c1ccc(O)cc1)c1ccc(C(C)(C)c2ccc(O)cc2)cc1` [BisP, α,α′-Bis(4-hydroxyphenyl)-1,4-diisopropylbenzene, reference compound]: the EC50 is over 25 µM. To `O=S(=O)(c1ccc(O)cc1)c1ccc(O)cc1` [Bisphenol S, 4,4′-dihydroxy-diphenylsulfone, reference compound] belongs 4.14 µM; to `O=S(=O)(c1ccc(O)cc1)c1ccc(-c2ccc(S(=O)(=O)c3ccc(O)cc3)cc2)cc1` [Example 1 (HPS), Hydroxysulfonebiphenyl], over 79.1 µM; to `O=S(=O)(c1ccc(Oc2ccc(O)cc2)cc1)c1ccc(Oc2ccc(O)cc2)cc1` [Example 3 (HBS), Bis-4-hydroxyphenoxydiphenylsulfone], over 79.1 µM. To `O=P(c1ccccc1)(c1ccc(Oc2ccc(O)cc2)cc1)c1ccc(Oc2ccc(O)cc2)cc1` [Example 5 (HPPPO), Bis-4-hydroxyphenoxyphenylphosphine oxide] belongs over 250 µM.

As usually defined, the EC50 is the concentration needed to bring the measured effect to its halfway point. Higher therefore signals a less potent agent.
